Article doi:10.1101/2024.08.13.607848, “Bibacillin 1: A two-component lantibiotic from Bacillus thuringiensis” (bioRxiv, 2024)

Columns and labels:
rabbit erythrocytes = type: cell-based; conditions: total peptide concentration 2 µM; 1 h at 37 °C; hemoglobin release, absorbance at 415 nm; mixture 1:1
Procedure: Solution phase hemolysis assays were conducted as described previously.[35]
Fig. S2. […] A) Hemoglobin release […]
erythrocytes were treated with 0.03% v/v triton X-100. Negative control contained only buffer. A total peptide concentration of 2 µM was used in each case. B) Extent of hemolysis after treating freshly washed rabbit erythrocytes with 1:1 of CylLS”:CylLL” at 37 ̊C for 1 h. Data was fit to a […]
(1 picture or pasted object on this page, not shown here)

[1] = tested on: Micrococcus luteus ATCC 4698; assay: Agar diffusion assay using bacteria; type: cell-based
Procedure: Fig. 4. […] Cytolysin was used as a positive control.
Overnight cultures of bacteria were prepared according to Table S1. The OD600 of each culture was determined and adjusted to a value of 1 using the appropriate growth media. Molten growth media containing 0.7% agar was cooled to 50 °C and inoculated with 50 μL of adjusted overnight culture for every 5 mL of molten growth media. The inoculated molten growth media was immediately poured onto a pre-warmed agar (2%) plate prepared using the same media. The plate was allowed to set for 30 min at room temperature before adding 3 μL of peptide stock diluted in PBS to 100 μM. The deposited peptide solutions were allowed to stand on the agar plate for 30 min before incubation for 16–36 h at the optimum growth temperature until the desired cell density was achieved.

[2] = SDS-PAGE analysis of oligomerization; type: physicochemical; conditions: in the presence of SDS
Description: Using agar plates seeded with E. faecalis pXL110 and the colorimetric LacZ substrate X-gal, LacZ expression was visualized. Consistent with previous reports,[43] […] Comparing the structures of CylLS” and Bib1β (Fig. 1A and 2B), we speculated that the presence of Ser16 in Bib1β rather than the hydrophobic residues present in CylLS” in this region might interfere with CylR1 binding possibly due to hydrophobic mismatching. […] To determine whether bibacillin 1 could quorum sense through an aggregation mechanism, the aggregation propensity of bibacillin 1 was analyzed using SDS-PAGE and dynamic light scattering (DLS). […] Since SDS can influence aggregation, the aggregation of bibacillin 1 was further investigated under SDS-free conditions using DLS (Fig. 6B). Bib1α exists in solution as aggregates that are 159 nm in diameter on average (PDI = 0.224) and Bib1β forms aggregates that are 291 nm in diameter on average (PDI = 0.384). […] Confirmation of this hypothesis will require in vitro studies with Bib1R1/R2.

[3] = In vitro pore formation assay, pyranine-encapsulated liposomes; conditions: total peptide concentration 5 μM; DOPC liposomes containing or lacking 0.1 mol% lipid II; mixture 1:1
Procedure: To investigate the lipid II-dependence of the pore formation activity of bibacillin 1, pyranine-encapsulated liposomes were prepared containing or lacking lipid II and pore formation was monitored via pH-dependent pyranine fluorescence.[70]
This assay was conducted as described elsewhere.[70]

With `CC=C1NC(=O)[C@@H](N)[C@@H](C)SC[C@@H](C(=O)N[C@@H](C)C(=O)N[C@H](C(=O)NCC(=O)NCC(=O)NCC(=O)N[C@@H](CC(C)C)C(=O)N[C@@H](C)C(=O)N[C@@H](CC(C)C)C(=O)NCC(=O)N[C@@H](Cc2ccccc2)C(=O)N[C@@H](CO)C(=O)N[C@H](C(=O)N[C@@H]2CSC[C@@H](C(=O)O)NC(=O)[C@H](Cc3ccc(O)cc3)NC(=O)[C@H]([C@@H](C)CC)NC(=O)[C@H](CCCCN)NC2=O)[C@@H](C)CC)[C@@H](C)CC)NC(=O)[C@H](C(C)C)NC(=O)[C@@H]2CCCN2C1=O` [Bib1β] the “Hemolysis in solution phase assay” value (rabbit erythrocytes) was “did not induce hemolysis”, the “Growth inhibition in agar diffusion assay” value [1] was “weak individual activity” and the “Oligomeric state by SDS-PAGE” value [2] was “oligomeric in the presence of SDS”.

For `C=C(NC(=O)[C@H](C)NC(=O)[C@@H]1CS[C@H](C)[C@H](N)C(=O)NC(=C)C(=O)N2CCC[C@H]2C(=O)N[C@@H](C)C(=O)N1)C(=O)N[C@@H](C)C(=O)N[C@@H](CCSC)C(=O)N[C@@H](CC(C)C)C(=O)N[C@@H](Cc1ccc(O)cc1)C(=O)N[C@@H](CC(C)C)C(=O)N[C@@H](CCC(N)=O)C(=O)NCC(=O)N[C@H](C(=O)NC(=CC)C(=O)N[C@H](C(=O)NC(=C)C(=O)N[C@@H](CC(C)C)C(=O)NCC(=O)N[C@@H](CC(C)C)C(=O)N[C@@H]1CSC[C@@H](C(=O)O)NC(=O)[C@H](Cc2c[nH]cn2)NC(=O)[C@H](CCSC)NC(=O)[C@H](CCCNC(=N)N)NC1=O)C(C)C)C(C)C` [Bib1α], the “Hemolysis in solution phase assay” value (rabbit erythrocytes) was “did not induce hemolysis”, the “Growth inhibition in agar diffusion assay” value [1] was “weak individual activity” and the “Pore formation activity in liposomes, pyranine fluorescence” value [3] was “pore formation activity that was somewhat enhanced by the addition of lipid II”. For the same molecule, the “Oligomeric state by SDS-PAGE” value [2] was “oligomeric in the presence of SDS”.
